Columns and labels:
[1] = human gut metagenome, 24 h, 2 µM
[2] = human gut metagenome, 24 h, 2 µM; remark: listed apart in the source
[3] = (§1) The drug is tested on Z-007 corresponding to rat gut metagenome with ENA study accession number: PRJEB37062 and ENA sample accession number: ERS12561807 for biotransformation under anaerobic condition. The drug concentrations were measured over 9 timepoints collected between 0 and 24 hours of incubation by liquid-chromatography-coupled mass spectrometry (LC–MS); settings: 2 µM
[4] = as §1, with “on WLS-220” for “on Z-007”, “to human” for “to rat”, “number: ERS12561769” for “number: ERS12561807”; settings: 2 µM
[5] = as §1, with “Z-012” for “Z-007”, “to” for “to rat gut”, “ERS12561812” for “ERS12561807”; settings: 2 µM
[6] = as §1, with “on Z-001” for “on Z-007”, “to mouse” for “to rat”, “number: ERS12561801” for “number: ERS12561807”; settings: 2 µM
[7] = human gut metagenome, 24 h, 2 µM; remark: listed apart in the source
[8] = human gut metagenome, 24 h, 2 µM; remark: listed apart in the source
[9] = as §1, with “on Z-030” for “on Z-007”, “to mouse” for “to rat”, “number: ERS12561829” for “number: ERS12561807”; settings: 2 µM
[10] = as §1, with “on WLS-069” for “on Z-007”, “to human” for “to rat”, “number: ERS12561748” for “number: ERS12561807”; settings: 2 µM
[11] = as §1, with “on WLS-090” for “on Z-007”, “to human” for “to rat”, “number: ERS12561753” for “number: ERS12561807”; settings: 2 µM
[12] = human gut metagenome, 24 h, 2 µM; remark: listed apart in the source
[13] = as §1, with “Z-021” for “Z-007”, “to” for “to rat gut”, “ERS12561820” for “ERS12561807”; settings: 2 µM
[14] = human gut metagenome, 24 h, 2 µM; remark: listed apart in the source
[15] = as §1, with “Z-004” for “Z-007”, “to” for “to rat gut”, “ERS12561804” for “ERS12561807”; settings: 2 µM
[16] = as §1, with “on WLS-240” for “on Z-007”, “to human” for “to rat”, “number: ERS12561773” for “number: ERS12561807”; settings: 2 µM
[17] = as §1, with “on WLS-038” for “on Z-007”, “to human” for “to rat”, “number: ERS12561745” for “number: ERS12561807”; settings: 2 µM
[18] = as §1, with “on WLS-370” for “on Z-007”, “to human” for “to rat”, “number: ERS12561793” for “number: ERS12561807”; settings: 2 µM
[19] = human gut metagenome, 24 h, 2 µM; remark: listed apart in the source
[20] = as §1, with “Z-019” for “Z-007”, “ERS12561818” for “ERS12561807”; settings: 2 µM
Note: call rule not given here.

SMILES | Bacterial Biotransformation [1] | Bacterial Biotransformation [2] | Bacterial Biotransformation [3] | Bacterial Biotransformation [4] | Bacterial Biotransformation [5] | Bacterial Biotransformation [6] | Bacterial Biotransformation [7] | Bacterial Biotransformation [8] | Bacterial Biotransformation [9] | Bacterial Biotransformation [10] | Bacterial Biotransformation [11] | Bacterial Biotransformation [12] | Bacterial Biotransformation [13] | Bacterial Biotransformation [14] | Bacterial Biotransformation [15] | Bacterial Biotransformation [16] | Bacterial Biotransformation [17] | Bacterial Biotransformation [18] | Bacterial Biotransformation [19] | Bacterial Biotransformation [20]
N#Cc1ccc2c(c1)N(CCCN1CCC(O)CC1)c1ccccc1S2 [PERICIAZINE] | Compound metabolized | Compound NOT metabolized |  | Compound metabolized |  |  | Compound NOT metabolized | Compound NOT metabolized |  | Compound metabolized | Compound metabolized | Compound NOT metabolized |  | Compound NOT metabolized |  | Compound metabolized | Compound metabolized | Compound NOT metabolized | Compound metabolized | 
O=C1N=C([O-])NC1(c1ccccc1)c1ccccc1.[Na+] [PHENYTOIN SODIUM] | Compound metabolized | Compound metabolized | Compound NOT metabolized | Compound metabolized | Compound NOT metabolized | Compound NOT metabolized | Compound metabolized | Compound metabolized |  | Compound metabolized | Compound metabolized | Compound NOT metabolized |  | Compound NOT metabolized | Compound NOT metabolized | Compound metabolized | Compound NOT metabolized | Compound metabolized | Compound metabolized | Compound NOT metabolized
O=C(O)c1cc(/N=N/c2ccc(S(=O)(=O)Nc3ccccn3)cc2)ccc1O [SULFASALAZINE] | Compound metabolized | Compound metabolized | Compound metabolized | Compound metabolized | Compound metabolized | Compound metabolized | Compound metabolized | Compound metabolized | Compound metabolized | Compound metabolized | Compound metabolized | Compound metabolized | Compound metabolized | Compound metabolized | Compound metabolized | Compound metabolized | Compound metabolized | Compound metabolized | Compound metabolized | 
CN(C/C=C/C#CC(C)(C)C)Cc1cccc2ccccc12 [TERBINAFINE] | Compound NOT metabolized | Compound NOT metabolized | Compound NOT metabolized | Compound NOT metabolized | Compound NOT metabolized | Compound NOT metabolized | Compound NOT metabolized | Compound NOT metabolized | Compound NOT metabolized |  | Compound NOT metabolized | Compound NOT metabolized | Compound NOT metabolized | Compound NOT metabolized | Compound NOT metabolized | Compound NOT metabolized |  | Compound NOT metabolized | Compound NOT metabolized | 
N#Cc1ccc2[nH]cc(CCCCN3CCN(c4ccc5oc(C(N)=O)cc5c4)CC3)c2c1 [VILAZODONE] | Compound metabolized | Compound metabolized | Compound NOT metabolized | Compound metabolized | Compound NOT metabolized | Compound metabolized | Compound metabolized | Compound metabolized | Compound metabolized |  | Compound metabolized | Compound NOT metabolized | Compound metabolized | Compound metabolized | Compound NOT metabolized | Compound metabolized |  | Compound metabolized | Compound metabolized | Compound NOT metabolized

Further lines, results first:

Bacterial Biotransformation [1] | Bacterial Biotransformation [2] | Bacterial Biotransformation [3] | Bacterial Biotransformation [4] | Bacterial Biotransformation [5] | Bacterial Biotransformation [6] | Bacterial Biotransformation [7] | Bacterial Biotransformation [8] | Bacterial Biotransformation [9] | Bacterial Biotransformation [10] | Bacterial Biotransformation [11] | Bacterial Biotransformation [12] | Bacterial Biotransformation [13] | Bacterial Biotransformation [14] | Bacterial Biotransformation [15] | Bacterial Biotransformation [16] | Bacterial Biotransformation [17] | Bacterial Biotransformation [18] | Bacterial Biotransformation [19] | Bacterial Biotransformation [20] | SMILES
Compound metabolized | Compound metabolized | Compound NOT metabolized | Compound metabolized | Compound NOT metabolized | Compound NOT metabolized | Compound metabolized | Compound metabolized | Compound NOT metabolized | Compound metabolized | Compound metabolized | Compound metabolized | Compound NOT metabolized | Compound metabolized | Compound NOT metabolized | Compound metabolized | Compound metabolized | Compound metabolized | Compound metabolized | Compound NOT metabolized | CCOC(=O)[C@H](CCc1ccccc1)N[C@@H](C)C(=O)N1Cc2ccccc2C[C@H]1C(=O)O
Compound metabolized | Compound metabolized |  | Compound metabolized |  |  | Compound metabolized | Compound metabolized |  | Compound metabolized | Compound metabolized | Compound metabolized |  | Compound metabolized | Compound metabolized | Compound metabolized | Compound metabolized | Compound metabolized | Compound metabolized |  | CC(=O)Oc1ccc(C(c2ccc(OC(C)=O)cc2)c2ccccn2)cc1 [BISACODYL]
Compound metabolized | Compound NOT metabolized |  | Compound metabolized |  | Compound metabolized | Compound NOT metabolized | Compound NOT metabolized |  | Compound NOT metabolized | Compound metabolized | Compound NOT metabolized |  | Compound NOT metabolized |  | Compound NOT metabolized | Compound NOT metabolized | Compound metabolized | Compound NOT metabolized |  | COCCCC/C(=N\OCCN)c1ccc(C(F)(F)F)cc1.O=C(O)/C=C\C(=O)O [FLUVOXAMINE MALEATE]
Compound metabolized | Compound metabolized | Compound NOT metabolized | Compound metabolized | Compound metabolized | Compound metabolized | Compound metabolized | Compound metabolized | Compound NOT metabolized | Compound metabolized | Compound metabolized | Compound metabolized | Compound metabolized | Compound metabolized | Compound metabolized | Compound metabolized | Compound metabolized | Compound metabolized |  | Compound NOT metabolized | C[C@]12C=CC(=O)C=C1CC[C@@H]1[C@@H]2C(=O)C[C@@]2(C)[C@H]1CC[C@]2(O)C(=O)CO [PREDNISONE]
Compound metabolized | Compound metabolized |  |  | Compound metabolized | Compound NOT metabolized | Compound metabolized | Compound NOT metabolized |  | Compound metabolized | Compound NOT metabolized | Compound metabolized |  | Compound NOT metabolized | Compound NOT metabolized | Compound metabolized | Compound NOT metabolized | Compound metabolized | Compound metabolized |  | CNNCc1ccc(C(=O)NC(C)C)cc1 [PROCARBAZINE]

Source: ChEMBL document CHEMBL5724914, “Linking interpersonal differences in gut microbiota composition and drug biotransformation activity” (2024)
